pKi: −log10 of the molar value.
Experiment: Inhibition of [3H]choline brain uptake through choline transporter was determined in situ brain perfusion studies in Male Fischer-344 rats
`C[N+](C)(C)CCCCO` showed a pKi of under 2.00. `C[N+](C)(C)CCCO` gave a pKi of 3.79. For `CC[N+](CC)(CC)CCO`, the pKi was 2.72. In the case of `CCN1CC=C(C(C)=O)CC1` [1-(1-Ethyl-1,2,3,6-tetrahydro-pyridin-4-yl)-ethanone], the pKi was under 2.00. `CC(=O)C1=CCC(CCc2ccccc2)CC1` (configuration not stated) [1-(4-Phenethyl-cyclohex-1-enyl)-ethanone] gave a pKi of 3.31. In the case of `CCCCCCCCN1CCCCC1` [1-Octyl-piperidine], the pKi was 4.49. With `CN(C)C1CCCCC1O` (configuration not stated) [2-Dimethylamino-cyclohexanol] the pKi was under 2.00. With `CSCCO` [2-Methylsulfanyl-ethanol] the pKi was under 2.00. `OCCCN1CCN(Cc2cccnc2)CC1` [3-(4-Pyridin-3-ylmethyl-piperazin-1-yl)-propan-1-ol] showed a pKi of under 2.00. `C[N+](C)(CCO)c1ccccc1` [(2-Hydroxy-ethyl)-dimethyl-phenyl-ammonium] showed a pKi of under 2.00. For `CCC[N+](C)(C)CCO` [(2-Hydroxy-ethyl)-dimethyl-propyl-ammonium], the pKi was 3.72. Molecule `C[N+](C)(CCO)c1ccc(F)cc1` [(4-Fluoro-phenyl)-(2-hydroxy-ethyl)-dimethyl-ammonium] has a pKi of 3.13. For `CCCC[N+](C)(C)CCO` [Butyl-(2-hydroxy-ethyl)-dimethyl-ammonium], the pKi was 4.40. Work on `CC[N+](C)(C)CCO` [Ethyl-(2-hydroxy-ethyl)-dimethyl-ammonium] yielded a pKi of 4.03. For `CC[N+](C)(C)C` [Ethyl-trimethyl-ammonium], the pKi was 2.33. Molecule `CC(O)C[N+](C)(C)C` (stereo not drawn) [beta-methylcholine] has a pKi of 3.70.

Experiment: as above
Remark: another data set of the same source
With `CCCCCCCC[N+](C)(C)CCO` [(2-Hydroxy-ethyl)-dimethyl-octyl-ammonium] the pKi was 5.68.

Source: BindingDB's records for doi:10.1016/j.bmcl.2004.04.020 (Texas Tech University Health Sciences Center, 2004)
